How the values were obtained:
CLK1 = target: T1, CLK1 (Homo sapiens, UniProt P49759); assay: Radiometric protein kinase assay (33PanQinase Activity Assay), CLK1; assay type: biochemical; conditions: class by IC50 on CLK1, from dose-response curves; read-out: Potency Class CLK1
T1 construct: GST-fusion or His-tag (not specified per kinase); purchased ProQinase GmbH; host or cells: Sf9 insect cells or E. coli (not specified per kinase)
Procedure: Assays were performed by ProQinase GmbH (Engesserstr. 4, D-79108 Freiburg, Germany. www.proqinase.com). The IC50 profile of all compounds was determined using 12 protein kinases (CDK2/cyclin E, CK1ε, CLK1, 2, 3, 4, DYRK1A, 1B, 2, 3, 4, GSK3β).
(§1) The compounds were provided as […] in 100% DMSO. Prior to testing, the 1 μM stock solutions were subjected to a serial, semi-logarithmic dilution using 100% DMSO as a solvent. […] In the process, 90 μl H2O were added to each well of each compound dilution plate. To minimize potential precipitation, the H2O was added to each plate only a few minutes before the transfer of the compound solutions into the assay plates. The plate was shaken thoroughly, resulting in a compound dilution plate/10% DMSO.
(§2) For the assays (see below), 5 μL solution from each well of the compound dilution plates/10% DMSO were transferred into the assay plates. The final volume of the assay was 50 μL. All compounds were tested at 10 final assay concentrations in the range from 10 μM to 30 nM. The final DMSO concentration in the reaction cocktails was 1% in all cases.
(§3) All protein kinases provided by ProQinase were expressed in Sf9 insect cells or in E. coli as recombinant GST-fusion proteins or His-tagged proteins, either as full-length or enzymatically active fragments. All kinases were produced from human cDNAs and purified by either GSH-affinity chromatography or immobilized metal. Affinity tags were removed from a number of kinases during purification. The purity of the protein kinases was examined by SDS-PAGE/Coomassie staining, the identity was checked by mass spectroscopy.
(§4) A radiometric protein kinase assay (33PanQinase® Activity Assay) was used for measuring the kinase activity of the 12 protein kinases. All kinase assays were performed in 96-well FlashPlates™ from PerkinElmer (Boston, MA, USA) in a 50 μL reaction volume. The reaction cocktail was pipetted in four steps in the following order: • 25 μL of assay buffer (standard buffer/[γ-^33P]-ATP), • 10 μL of ATP solution (in H2O), • 5 μL of test compound (in 10% DMSO), • 10 μL of enzyme/substrate mixture.
(§5) The reaction cocktails were incubated at 30° C. for 60 minutes. The reaction was stopped with 50 μL of 2% (v/v) H3PO4, plates were aspirated and washed two times with 200 μL 0.9% (w/v) NaCl. Incorporation of ^33Pi was determined with a microplate scintillation counter (Microbeta, Wallac). The IC50 values for all compounds were calculated from the dose response curves
As a parameter for assay quality, the Z′-factor (Zhang et al., J. Biomol. Screen. 2: 67-73, 1999) for the low and high controls of each assay plate (n=8) was used. ProQinase's criterion for repetition of an assay plate is a Z′-factor below 0.4 (Iversen et al., J. Biomol. Screen. 3: 247-252, 2006).

DYRK1A = target: T2, DYRK1A (Homo sapiens, UniProt Q13627); assay: Radiometric protein kinase assay (33PanQinase Activity Assay), DYRK1A; assay type: biochemical; conditions: for IC50: class by IC50 on DYRK1A, from dose-response curves, read-out: Potency Class DYRK1A; for Selectivity Class DYRK1A vs. CLK1: ratio of IC50 on CLK1 over IC50 on DYRK1A; for Selectivity Class DYRK1A vs. DYRK1B: ratio of IC50 on DYRK1B over IC50 on DYRK1A
T2 construct: GST-fusion or His-tag (not specified per kinase); purchased ProQinase GmbH; host or cells: Sf9 insect cells or E. coli (not specified per kinase)
Procedure: The IC50 profile of all compounds was determined using 12 protein kinases (CDK2/cyclin E, CK1ε, CLK1, 2, 3, 4, DYRK1A, 1B, 2, 3, 4, GSK3β).
as §1, §2, §3, §4, §5

T1 sequence (P49759 whole entry, the tested form may be a part): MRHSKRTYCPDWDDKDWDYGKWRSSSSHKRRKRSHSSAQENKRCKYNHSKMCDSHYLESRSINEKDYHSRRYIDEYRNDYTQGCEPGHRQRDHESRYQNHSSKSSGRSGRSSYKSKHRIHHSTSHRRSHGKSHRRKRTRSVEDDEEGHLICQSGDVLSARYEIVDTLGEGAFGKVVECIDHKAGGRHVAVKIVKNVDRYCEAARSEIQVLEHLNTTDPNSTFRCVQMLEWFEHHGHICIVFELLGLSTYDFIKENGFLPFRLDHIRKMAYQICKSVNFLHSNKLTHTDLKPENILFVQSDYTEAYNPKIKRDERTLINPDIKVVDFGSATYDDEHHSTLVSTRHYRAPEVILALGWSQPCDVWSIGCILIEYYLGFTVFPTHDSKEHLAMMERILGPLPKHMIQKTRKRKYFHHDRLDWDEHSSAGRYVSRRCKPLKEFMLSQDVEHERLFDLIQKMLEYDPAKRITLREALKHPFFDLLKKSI

IC50 (CLK1) [µM]	IC50 (DYRK1A) [µM]	Selectivity Class DYRK1A vs. CLK1 (DYRK1A)	Selectivity Class DYRK1A vs. DYRK1B (DYRK1A)	Compound
> 0.05	> 0.05	III (ratio between 0.5 and 2 fold)	II (ratio between 2 and 10 fold)	O=C1NC(NCC2CCOCC2)=N/C1=C\c1ccc2nccnc2c1 [Compound 32, (4Z)-4-(quinoxalin-6-ylmethylene)-2-(tetrahydropyran-4-ylmethylamino)-1H-imidazol-5-one]
> 0.05	> 0.05	II (ratio between 2 and 10 fold)	II (ratio between 2 and 10 fold)	CO[C@@H]1CCC[C@H]1NC1=N/C(=C\c2ccc3nccnc3c2)C(=O)N1 [Compound 4, (4Z)-2-[[(1R,2R)-2-methoxycyclopentyl]amino]-4-(quinoxalin-6-ylmethylene)-1H-imidazol-5-one]
> 0.05	0.01 to 0.025	II (ratio between 2 and 10 fold)	II (ratio between 2 and 10 fold)	O=C1NC(N[C@H]2c3ccccc3C[C@@H]2O)=N/C1=C\c1ccc2nccnc2c1 [Compound 23, (4Z)-2-[[(1S,2S)-2-hydroxyindan-1-yl]amino]-4-(quinoxalin-6-ylmethylene)-1H-imidazol-5-one]
> 0.05	> 0.05	III (ratio between 0.5 and 2 fold)	II (ratio between 2 and 10 fold)	O=C1NC(N[C@@H]2COCC[C@H]2O)=N/C1=C\c1ccc2nccnc2c1 [Compound 40, (4Z)-2-[[(3R,4R)-4-Hydroxytetrahydropyran-3-yl]amino]-4-(quinoxalin-6-ylmethylene)-1H-imidazol-5-one]
> 0.05	–	–	–	O=C1NC(NC2CCCCCC2)=N/C1=C\c1ccc2nccnc2c1 [Compound 1, (4Z)-2-(cycloheptylamino)-4-(quinoxalin-6-ylmethylene)-1H-imidazol-5-one]
> 0.05	> 0.05	II (ratio between 2 and 10 fold)	II (ratio between 2 and 10 fold)	CC1(C)CCC(NC2=N/C(=C\c3ccc4nccnc4c3)C(=O)N2)CO1 (racemic) [Compound 36, (±)-(4Z)-2-[(6,6-dimethyltetrahydropyran-3-yl)amino]-4-(quinoxalin-6-ylmethylene)-1H-imidazol-5-one]
> 0.05	> 0.05	III (ratio between 0.5 and 2 fold)	III (ratio between 0.5 and 2 fold)	O=C1NC(N[C@@H]2CCOC2)=N/C1=C\c1ccc2ncccc2c1 [Compound 55, (4Z)-4-(6-Quinolylmethylene)-2-[[(3R)-tetrahydrofuran-3-yl]amino]-1H-imidazol-5-one]
> 0.05	> 0.05	III (ratio between 0.5 and 2 fold)	III (ratio between 0.5 and 2 fold)	Cc1csc(CNC2=N/C(=C\c3ccc4nccnc4c3)C(=O)N2)n1 [Compound 31, (4Z)-2-[(4-methylthiazol-2-yl)methylamino]-4-(quinoxalin-6-ylmethylene)-1H-imidazol-5-one]
> 0.05	–	–	–	O=C1NC(N[C@@H]2CCC[C@@H](O)CC2)=N/C1=C\c1ccc2nccnc2c1 (racemic) [Compound 6, (±)-(4Z)-2-[[trans-4-hydroxycycloheptyl]amino]-4-(quinoxalin-6-ylmethylene)-1H-imidazol-5-one]
> 0.05	–	–	–	CO[C@H]1CCCC[C@@H](NC2=N/C(=C\c3ccc4nccnc4c3)C(=O)N2)C1 (racemic) [Compound 8, (+)-(4Z)-2-[[cis-3-methoxycycloheptyl]amino]-4-(quinoxalin-6-ylmethylene)-1H-imidazol-5-one]
> 0.05	–	–	–	O=C1NC(NC2CCCCCCC2)=N/C1=C\c1ccc2nccnc2c1 [Compound 2, (4Z)-2-(cyclooctylamino)-4-(quinoxalin-6-ylmethylene)-1H-imidazol-5-one]
> 0.05	–	–	–	O=C1NC(NC2CCCCC2)=N/C1=C\c1ccc2nccnc2c1 [Compound 74, (4Z)-2-(Cyclohexylamino)-4-(quinoxalin-6-ylmethylene)-1H-imidazol-5-one]

The next lines start with the compound.

Compound	IC50 (CLK1) [µM]	IC50 (DYRK1A) [µM]	Selectivity Class DYRK1A vs. CLK1 (DYRK1A)	Selectivity Class DYRK1A vs. DYRK1B (DYRK1A)
O=C1NC(NC2CCCCCC2)=N/C1=C\c1ccc2cnccc2c1 [Compound 57, (4Z)-2-(cycloheptylamino)-4-(6-isoquinolylmethylene)-1H-imidazol-5-one]	> 0.05	> 0.05	III (ratio between 0.5 and 2 fold)	III (ratio between 0.5 and 2 fold)
O=C1NC(N[C@H](CO)c2ccccc2)=N/C1=C\c1ccc2nccnc2c1 [Compound 25, (4Z)-2-[[(1S)-2-Hydroxy-1-phenyl-ethyl]amino]-4-(quinoxalin-6-ylmethylene)-1H-imidazol-5-one]	> 0.05	–	–	–
Cc1cnc(CNC2=N/C(=C\c3ccc4nccnc4c3)C(=O)N2)cn1 [Compound 30, (4Z)-2-[(5-methylpyrazin-2-yl)methylamino]-4-(quinoxalin-6-ylmethylene)-1H-imidazol-5-one]	> 0.05	> 0.05	IV (ratio between 0.1 and 0.5 fold)	II (ratio between 2 and 10 fold)
COC[C@H](NC1=N/C(=C\c2ccc3nnccc3c2)C(=O)N1)c1ccccc1 [Compound 72, (4Z)-4-(cinnolin-6-ylmethylene)-2-[[(1R)-2-methoxy-1-phenyl-ethyl]amino]-1H-imidazol-5-one]	> 0.05	> 0.05	III (ratio between 0.5 and 2 fold)	III (ratio between 0.5 and 2 fold)
Cn1ccc(NC2=N/C(=C\c3ccc4cnccc4c3)C(=O)N2)n1 [Compound 65, (4Z)-4-(6-Isoquinolylmethylene)-2-[(1-methylpyrazol-3-yl)amino]-1H-imidazol-5-one]	> 0.05	> 0.05	IV (ratio between 0.1 and 0.5 fold)	III (ratio between 0.5 and 2 fold)
CN1C(=O)/C(=C/c2ccc3ncccc3c2)N=C1NC1CCCCC1 [Compound 84, (5Z)-2-(Cyclohexylamino)-3-methyl-5-(quinolin-6-ylmethylene)imidazol-4-one]	> 0.05	> 0.05	III (ratio between 0.5 and 2 fold)	III (ratio between 0.5 and 2 fold)
COC[C@H](NC1=N/C(=C\c2ccc3ncccc3c2)C(=O)N1)c1ccccc1 [Compound 52, (4Z)-2-[[(1R)-2-methoxy-1-phenyl-ethyl]amino]-4-(6-quinolylmethylene)-1H-imidazol-5-one]	> 0.05	> 0.05	III (ratio between 0.5 and 2 fold)	II (ratio between 2 and 10 fold)
CC(C)C[C@H](COCc1ccc(F)cc1)NC1=N/C(=C\c2ccc3nccnc3c2)C(=O)N1 [Compound 13, (4Z)-2-[[(1R)-1-[(4-fluorophenyl)methoxymethyl]-3-methyl-butyl]amino]-4-(quinoxalin-6-ylmethylene)-1H-imidazol-5-one]	> 0.05	–	–	–
COC[C@@H](CC(C)C)NC1=N/C(=C\c2ccc3nccnc3c2)C(=O)N1 [Compound 10, (4Z)-2-[[(1R)-1-(methoxymethyl)-3-methyl-butyl]amino]-4-(quinoxalin-6-ylmethylene)-1H-imidazol-5-one]	> 0.05	–	–	–
O=C1NC(N[C@@H](CO)c2ccccc2)=N/C1=C\c1ccc2nccnc2c1 [Compound 24, (4Z)-2-[[(1R)-2-hydroxy-1-phenyl-ethyl]amino]-4-(quinoxalin-6-ylmethylene)-1H-imidazol-5-one]	0.025 to 0.05	–	–	–

— US20250340538A1, “IMIDAZOLONE DERIVATIVES AS INHIBITORS OF PROTEIN KINASES IN PARTICULAR DYRK1A, CLK1 AND/OR CLK4” (PERHA PHARMACEUTICALS, priority 2021, published 2025)
